{"source": "patent US20200397807A1", "about": "“NICOTINYL RIBOSIDE COMPOUNDS AND THEIR USES” (MitoPower, LLC, priority 2019, published 2020)", "key": {"Jurkat cells [1]": {"test_system": "Jurkat cells", "assay": "Total cellular NAD^+ level after MNNG-induced depletion (NAD/NADH Glo assay)", "assay_type": "cell-based", "conditions": "for % NAD^+ Repletion: MNNG 100 μM, compound 1 mM; for increase of NAD^+ level: 100 μM MNNG 30 min, wash, NR 100 μM or/and olaparib 5 nM 3.5 hr"}, "HepG2 cells [2]": {"test_system": "HepG2 cells", "assay": "Total cellular NAD^+ level after MNNG-induced depletion (NAD/NADH Glo assay)", "assay_type": "cell-based", "conditions": "MNNG 100 μM, compound 1 mM"}, "HepG2 cells [3]": {"test_system": "HepG2 cells", "assay": "MNNG-induced cytotoxicity / cytoprotection (CellTiter-Blue Cell Viability Assay)", "assay_type": "cell-based", "conditions": "MNNG 600 μM, compound 1 mM"}, "Jurkat cells [4]": {"test_system": "Jurkat cells", "conditions": "MNNG 100 μM, compound 1 mM"}, "HepG2 cells [5]": {"test_system": "HepG2 cells", "assay": "Lactate released into the media", "assay_type": "cell-based"}, "HepG2 cells [6]": {"test_system": "HepG2 cells", "assay": "Glucose concentration in the media", "assay_type": "cell-based"}, "Jurkat cells [7]": {"test_system": "Jurkat cells", "assay": "NAD^+ assay (total cellular NAD^+ by HPLC/LCMS), with or without MNNG", "conditions": "Jurkat not treated with MNNG; NRH vs. NR 100 μM; 4 hr"}, "[8]": {"conditions": "4 g of oral NTZ; healthy adults; cited from earlier work"}, "HepG2 cells [9]": {"test_system": "HepG2 cells"}, "HepG2 cells [10]": {"test_system": "HepG2 cells", "remark": "listed apart in the source"}, "[11]": {"conditions": "led to fatally high body temperature; cited from earlier work"}}, "note": "Structures can show the parent of a compound that is named as a salt. Where two headings read alike, the source gives them in different places.", "data": [{"smiles": "COC(=O)CCC(=O)OC[C@H]1O[C@@H]([n+]2cccc(C(N)=O)c2)[C@H](O)[C@@H]1O", "note": "[MP-43, 3-Carboxamide-1-((2R,3R,4S,5R)-3,4-dihydroxy-5-(((4-methoxy-4-oxobutanoyl)oxy)methyl)tetrahydrofuran-2-yl)pyridin-1-ium Trifluoroacetate]", "values": [{"measurement": "% NAD^+ Repletion", "setting": "Jurkat cells [1]", "value": 12.9, "unit": "%"}, {"measurement": "% NAD^+ Repletion", "setting": "HepG2 cells [2]", "value": 31.1, "unit": "%"}, {"measurement": "% Cytoprotection", "setting": "HepG2 cells [3]", "value": 5.7, "unit": "%"}, {"measurement": "% Cytoprotection", "setting": "Jurkat cells [4]", "value": 6.3, "unit": "%"}]}, {"smiles": "O=C(c1cc(Cc2n[nH]c(=O)c3ccccc23)ccc1F)N1CCN(C(=O)C2CC2)CC1", "note": "[olaparib, reference compound]", "values": [{"measurement": "increase of NAD^+ level", "setting": "Jurkat cells [1]", "value": 8, "unit": "%"}]}, {"smiles": "NC(=O)C1=CN([C@@H]2O[C@H](CO)[C@@H](O)[C@H]2O)C=CC1", "note": "[NRH]", "values": [{"measurement": "concentration of lactate released into the media", "setting": "HepG2 cells [5]; 50 μM DNP, 100 μM NRH or both, 4 hr, versus untreated, FIG. 28", "value": "did not significantly affect"}, {"measurement": "concentration of glucose in the media", "setting": "HepG2 cells [6]; 50 μM DNP, 100 μM NRH or both, 4 hr, versus untreated, FIG. 29", "value": "did not significantly affect"}, {"measurement": "NAD^+ level, NRH alone versus NR alone", "setting": "Jurkat cells [7]", "value": "markedly higher NAD^+ level than NR alone"}]}, {"smiles": "CC(=O)Oc1ccccc1C(=O)Nc1ncc([N+](=O)[O-])s1", "note": "[NTZ, nitazoxanide]", "values": [{"measurement": "adverse effect", "setting": "[8]", "value": "does not cause any significant adverse effect"}]}, {"smiles": "NC(=O)c1ccc[n+]([C@@H]2O[C@H](COC(=O)CCC(=O)O)[C@@H](O)[C@H]2O)c1", "note": "[MP-42, 3-Carboxamide-1-((2R,3R,4S,5R)-5-(((3-carboxypropanoyl)oxy)methyl)-3,4-dihydroxytetrahydrofuran-2-yl)pyridin-1-ium Trifluoroacetate]", "values": [{"measurement": "% NAD^+ Repletion", "setting": "Jurkat cells [1]", "value": 8.2, "unit": "%"}, {"measurement": "% NAD^+ Repletion", "setting": "HepG2 cells [2]", "value": 23.7, "unit": "%"}, {"measurement": "% Cytoprotection", "setting": "HepG2 cells [3]", "value": 9.9, "unit": "%"}, {"measurement": "% Cytoprotection", "setting": "Jurkat cells [4]", "value": 4.5, "unit": "%"}]}, {"smiles": "NC(=O)c1ccc[n+]([C@@H]2O[C@H](CO)[C@@H](O)[C@H]2O)c1", "note": "[NR, nicotinamide riboside, reference compound]", "values": [{"measurement": "increase of NAD^+ level", "setting": "Jurkat cells [1]", "value": 43, "unit": "%"}]}, {"smiles": "O=[N+]([O-])c1ccc(O)c([N+](=O)[O-])c1", "note": "[DNP, 2,4-Dinitrophenol]", "values": [{"measurement": "concentration of lactate released into the media", "setting": "HepG2 cells [5]", "value": "markedly increased"}, {"measurement": "concentration of glucose in the media", "setting": "HepG2 cells [6]", "value": "significantly reduced"}, {"measurement": "% viability of HepG2 cells", "setting": "HepG2 cells [9]", "value": "significantly reduced"}, {"measurement": "activity of lactate dehydrogenase (LDH) released into the media", "setting": "HepG2 cells [10]", "value": "markedly increased"}, {"measurement": "dose causing excessive systemic uncoupling, fold greater than minimum effective dose for reducing body weight", "setting": "[11]", "value": "3-10 fold"}]}]}
